Assay results reported in US9145399B2, “Substituted bicyclic triazole derivatives as gamma secretase modulators” (Janssen Pharmaceuticals, Inc., priority 2010, dated 2015).
Structures can show the parent of a compound that is named as a salt.

Experiments:
Aβtotal = experiment: Screening for γ-secretase-modulating activity in SKNBE2 cells carrying APP 695 wild type: Aβtotal in cell supernatant (Alphalisa); format: cell-based; details: overnight incubation
Method: (§1) Pharmacology A) Screening of the Compounds of the Invention for γ-Secretase-Modulating Activity
(§2) Screening was carried out using SKNBE2 cells carrying the APP 695—wild type, grown in Dulbecco's Modified Eagle's Medium/Nutrient mixture F-12 (DMEM/NUT-mix F-12) (HAM) provided by Invitrogen (cat no. 10371-029) containing 5% Serum/Fe supplemented with 1% non-essential amino acids, 1-glutamine 2 mM, Hepes 15 mM, penicillin 50 U/ml (units/ml) en streptomycin 50 μg/ml. Cells were grown to near confluency.
(§3) The screening was performed using a modification of the assay as described in Citron et al (1997) Nature Medicine 3: 67. Briefly, cells were plated in a 384-well plate at 10^4 cells/well in Ultraculture (Lonza, BE12-725F) supplemented with 1% glutamine (Invitrogen, 25030-024), 1% non-essential amino acid (NEAA), penicillin 50 U/ml en streptomycin 50 μg/ml in the presence of test compound at different test concentrations. The cell/compound mixture was incubated overnight at 37° C., 5% CO2. The next day the media were assayed by two sandwich immuno-assays, for Aβ42 and Aβtotal.
(§4) Aβtotal and Aβ42 concentrations were quantified in the cell supernatant using the Aphalisa technology (Perkin Elmer). Alphalisa is a sandwich assay using biotinylated antibody attached to streptavidin coated donorbeads and antibody conjugated to acceptor beads. In the presence of antigen, the beads come into close proximity. The excitation of the donor beads provokes the release of singlet oxygen molecules that trigger a cascade of energy transfer in the acceptor beads, resulting in light emission. To quantify the amount of Aβ42 in the cell supernatant, monoclonal antibody specific to the C-terminus of Aβ42 (JRF/cAβ42/26) was coupled to the receptor beads and biotinylated antibody specific to the N-terminus of Aβ (JRF/AβN/25) was used to react with the donor beads. T quantify the amount of Aβtotal in the cell supernatant, monoclonal antibody specific to the N-terminus of Aβ (JRF/AβN/25) was coupled to the receptor beads and biotinylated antibody specific to the mid region of Aβ (biotinylated 4G8) was used to react with the donor beads.
(§5) To obtain the values reported in Table 3, the data are calculated as percentage of the maximum amount of amyloid Beta 42 measured in the absence of the test compound. The sigmoidal dose response curves were analyzed using non-linear regression analysis with percentage of the control plotted against the log concentration of the compound. A 4-parameter equation was used to determine the IC50.

Aβ42 = experiment: Screening for γ-secretase-modulating activity in SKNBE2 cells carrying APP 695 wild type: Aβ42 in cell supernatant (Alphalisa); format: cell-based; details: overnight incubation
Method: as §1, §2, §3, §4, §5

[1] = Homo sapiens, SKNBE2, SKNBE2 cells carrying APP 695 wild type
[2] = SKNBE2 cells carrying APP 695 wild type

Q: Which results are given for COc1cc(Nc2nc3n(n2)CCC(C)C3c2ccc(F)cc2)ccc1-c1ccnc(C)c1 (racemic) [Compound 101, 8-(4-fluorophenyl)-5,6,7,8-tetrahydro-N-[3-methoxy-4-(2-methyl-4-pyridinyl)phenyl]-7-methyl-[1,2,4]triazolo[1,5-a]pyridin-2-amine]?
A: IC50 (Aβtotal; Homo sapiens): > 10000 nM; melting point: 122.1 °C; IC50 (Aβ42; [1]): 44 nM

Q: With COc1cc(Nc2nc3n(n2)CCCC3c2ccc(F)cc2)ccc1-c1ccnc(C)c1 (stereo not shown) [Compound 1, 8-(4-fluorophenyl)-5,6,7,8-tetrahydro-N-[3-methoxy-4-(2-methyl-4-pyridinyl)phenyl]-[1,2,4]triazolo[1,5-a]pyridin-2-amine] as the compound, how does the IC50 (Aβtotal; Homo sapiens) read?
A: 7760 nM

Q: What about the melting point of the same compound?
A: 207.1 °C

Q: And the IC50 (Aβ42; [1])?
A: 16 nM

Q: Which IC50 (Aβtotal; Homo sapiens) does the source give for COc1cc(Nc2nc3c(-c4ccccc4Cl)cccn3n2)ccc1-c1ccnc(C)c1 [Compound 2, 8-(2-chlorophenyl)-N-[3-methoxy-4-(2-methyl-4-pyridinyl)phenyl]-[1,2,4]triazolo[1,5-a]pyridin-2-amine] here?
A: > 10000 nM

Q: And the melting point?
A: 186.7 °C

Q: And the IC50 (Aβ42; [1])?
A: 7 nM

Q: For COc1cc(Nc2nc3c(-c4ccc(F)cc4C(F)(F)F)cccn3n2)ccc1-n1cnc(C)c1 [Compound 6, 8-[4-fluoro-2-(trifluoromethyl)phenyl]-N-[3-methoxy-4-(4-methyl-1H-imidazol-1-yl)phenyl]-[1,2,4]triazolo[1,5-a]pyridin-2-amine], which IC50 (Aβtotal; Homo sapiens) is on record?
A: 7410 nM

Q: What about the melting point of the same compound?
A: 238.4 °C

Q: And the IC50 (Aβ42; [1])?
A: 7 nM

Q: Which IC50 (Aβtotal; Homo sapiens) does the source give for COc1cc(Nc2nc3c(-c4ccccc4Cl)cccn3n2)ccc1-n1cnc(C)c1 [Compound 7, 8-(2-chlorophenyl)-N-[3-methoxy-4-(4-methyl-1H-imidazol-1-yl)phenyl]-[1,2,4]triazolo[1,5-a]pyridin-2-amine] here?
A: > 10000 nM

Q: And the melting point?
A: 235 °C

Q: And the IC50 (Aβ42; [1])?
A: 7 nM

Q: What does the source list for COc1cc(Nc2nc3c(-c4ccccc4C(F)(F)F)nccn3n2)ccc1-n1cnc(C)c1 [Compound 8, N-[3-methoxy-4-(4-methyl-1H-imidazol-1-yl)phenyl]-8-[2-(trifluoromethyl)phenyl]-[1,2,4]triazolo[1,5-a]pyrazin-2-amine]?
A: IC50 (Aβtotal; Homo sapiens): 7590 nM; melting point: 206.9 °C; IC50 (Aβ42; [1]): 32 nM

Q: Which IC50 (Aβtotal; Homo sapiens) does the source give for COc1cc(Nc2nc3n(n2)CCNC3c2ccccc2C(F)(F)F)ccc1-n1cnc(C)c1 (stereo not shown) [Compound 9, 5,6,7,8-tetrahydro-N-[3-methoxy-4-(4-methyl-1H-imidazol-1-yl)phenyl]-8-[2-(trifluoromethyl)phenyl]-[1,2,4]triazolo[1,5-a]pyrazin-2-amine] here?
A: > 10000 nM

Q: What about the melting point of the same compound?
A: 248 °C

Q: And the IC50 (Aβ42; [1])?
A: 65 nM

Q: With COc1nc(Nc2nc3c(-c4ccc(F)cc4C)nccn3n2)ccc1-n1cnc(C)c1 [Compound 11, 8-(4-fluoro-2-methylphenyl)-N-[6-methoxy-5-(4-methyl-1H-imidazol-1-yl)-2-pyridinyl]-[1,2,4]triazolo[1,5-a]pyrazin-2-amine] as the compound, how does the melting point read?
A: 278.9 °C

Q: With COc1nc(Nc2nc3c(-c4ccc(F)cc4C)nccn3n2)ccc1-c1ccnc(C)c1 [Compound 12, 8-(4-fluoro-2-methylphenyl)-N-(2-methoxy-2′-methyl[3,4′-bipyridin]-6-yl)-[1,2,4]triazolo[1,5-a]pyrazin-2-amine] as the compound, how does the melting point read?
A: 268.2 °C

Q: For COc1cc(Nc2nc3n(n2)CCCC3c2ccccc2C(F)(F)F)ccc1-n1cnc(C)n1 (stereo not shown) [Compound 15, 5,6,7,8-tetrahydro-N-[3-methoxy-4-(3-methyl-1H-1,2,4-triazol-1-yl)phenyl]-8-[2-(trifluoromethyl)phenyl]-[1,2,4]triazolo[1,5-a]pyridin-2-amine], which IC50 (Aβtotal; Homo sapiens) is on record?
A: > 10000 nM

Q: What about the melting point of the same compound?
A: 233.2 °C

Q: What about the IC50 (Aβ42; [1]) of the same compound?
A: 79 nM

Q: With COc1cc(Nc2nc3c(-c4cccc(C(F)(F)F)c4)cccn3n2)ccc1-n1cnc(C)c1 [Compound 20, N-[3-methoxy-4-(4-methyl-1H-imidazol-1-yl)phenyl]-8-[3-(trifluoromethyl)phenyl]-[1,2,4]triazolo[1,5-a]pyridin-2-amine] as the compound, how does the IC50 (Aβtotal; Homo sapiens) read?
A: 5890 nM

Q: And the melting point?
A: 175 °C

Q: What about the IC50 (Aβ42; [1]) of the same compound?
A: 5 nM

Q: For Cc1cc(-c2ccc(Nc3nc4n(n3)CCOC4c3ccccc3C(F)(F)F)cc2F)ccn1 (stereo not shown) [Compound 86, N-[3-fluoro-4-(2-methyl-4-pyridinyl)phenyl]-5,6-dihydro-8-[2-(trifluoromethyl)phenyl]-8H-[1,2,4]triazolo[5,1-c][1,4]oxazin-2-amine], which IC50 (Aβtotal; Homo sapiens) is on record?
A: > 10000 nM

Q: And the IC50 (Aβ42; [1])?
A: 48 nM

Q: With Cc1cc(-c2ccc(Nc3nc4n(n3)CCOC4c3ccccc3Cl)cc2F)ccn1 (stereo not shown) [Compound 88, 8-(2-chlorophenyl)-N-[3-fluoro-4-(2-methyl-4-pyridinyl)phenyl]-5,6-dihydro-8H-[1,2,4]triazolo[5,1-c][1,4]oxazin-2-amine] as the compound, how does the IC50 (Aβtotal; Homo sapiens) read?
A: 9330 nM

Q: What about the IC50 (Aβ42; [1]) of the same compound?
A: 36 nM

Q: Which results are given for COc1cc(Nc2nc3n(n2)CCCC3c2ccc(C(F)(F)F)cc2)ccc1-c1ccnc(C)c1 (stereo not shown) [Compound 89, 5,6,7,8-tetrahydro-N-[3-methoxy-4-(2-methyl-4-pyridinyl)phenyl]-8-[4-(trifluoromethyl)phenyl]-[1,2,4]triazolo[1,5-a]pyridin-2-amine]?
A: IC50 (Aβtotal; Homo sapiens): 9120 nM; IC50 (Aβ42; [1]): 32 nM

Q: For Cc1cc(-c2ccc(Nc3nc4n(n3)CCC[C@@H]4c3ccc(F)cc3C)cc2)ccn1 [Compound 93, (8R)-8-(4-fluoro-2-methylphenyl)-5,6,7,8-tetrahydro-N-[4-(2-methyl-4-pyridinyl)phenyl]-[1,2,4]triazolo[1,5-a]pyridin-2-amine], which IC50 (Aβtotal; Homo sapiens) is on record?
A: > 10000 nM

Q: And the IC50 (Aβ42; [1])?
A: 43 nM

Q: Which results are given for Cc1cc(-c2ccc(Nc3nc4n(n3)CCC[C@H]4c3ccc(F)cc3C)cc2)ccn1 [Compound 94, (8S)-8-(4-fluoro-2-methylphenyl)-5,6,7,8-tetrahydro-N-[4-(2-methyl-4-pyridinyl)phenyl]-[1,2,4]triazolo[1,5-a]pyridin-2-amine]?
A: IC50 (Aβtotal; Homo sapiens): > 10000 nM; IC50 (Aβ42; [1]): 56 nM

Q: Which IC50 (Aβtotal) does the source give for COc1ccc(C2CCCn3nc(Nc4ccc(-c5ccnc(C)c5)c(OC)c4)nc32)cc1F (stereo not shown) [Compound 104, 8-(3-fluoro-4-methoxyphenyl)-5,6,7,8-tetrahydro-N-[3-methoxy-4-(2-methyl-4-pyridinyl)phenyl]-[1,2,4]triazolo[1,5-a]pyridin-2-amine.1.3HCl.2.3H2O] here?
A: > 10000 nM

Q: What about the IC50 (Aβ42; [2]) of the same compound?
A: 56 nM

Q: With COc1cc(Nc2nc3n(n2)CCCC3c2cccc(N(C)C)c2)ccc1-c1ccnc(C)c1 (stereo not shown) [Compound 111, 8-[3-(dimethylamino)phenyl]-5,6,7,8-tetrahydro-N-[3-methoxy-4-(2-methyl-4-pyridinyl)phenyl]-[1,2,4]triazolo[1,5-a]pyridin-2-amine] as the compound, how does the IC50 (Aβtotal; Homo sapiens) read?
A: > 10000 nM

Q: And the IC50 (Aβ42; [1])?
A: 56 nM

Q: Which results are given for COc1cc(F)cc(C2CCCn3nc(Nc4ccc(-c5ccnc(C)c5)c(OC)c4)nc32)c1 (stereo not shown) [Compound 115, 8-(3-fluoro-5-methoxyphenyl)-5,6,7,8-tetrahydro-N-[3-methoxy-4-(2-methyl-4-pyridinyl)phenyl]-[1,2,4]triazolo[1,5-a]pyridin-2-amine]?
A: IC50 (Aβtotal; Homo sapiens): > 10000 nM; IC50 (Aβ42; [1]): 41 nM

Q: For Cc1cc(-c2ccc(Nc3nc4n(n3)CCCC4c3cc(C(F)(F)F)ccc3C)cc2)ccn1 (stereo not shown) [Compound 144, 5,6,7,8-tetrahydro-N-[4-(2-methyl-4-pyridinyl)phenyl]-8-[2-methyl-5-(trifluoromethyl)phenyl]-[1,2,4]triazolo[1,5-a]pyridin-2-amine], which IC50 (Aβtotal; Homo sapiens) is on record?
A: > 10000 nM

Q: And the IC50 (Aβ42; [1])?
A: 28 nM

Q: Which results are given for COc1ccc(F)c(C2CCCn3nc(Nc4ccc(-c5ccnc(C)c5)c(OC)c4)nc32)c1 (stereo not shown) [Compound 172, 8-(2-fluoro-5-methoxyphenyl)-5,6,7,8-tetrahydro-N-[3-methoxy-4-(2-methyl-4-pyridinyl)phenyl]-[1,2,4]triazolo[1,5-a]pyridin-2-amine.1.7HCl]?
A: IC50 (Aβtotal): > 10000 nM; IC50 (Aβ42; [2]): 38 nM

Q: With COc1cc(Nc2nc3c(N4CCCC(C(F)(F)F)C4)cccn3n2)ccc1-c1ccnc(C)c1 (stereo not shown) [Compound 181, N-[3-methoxy-4-(2-methyl-4-pyridinyl)phenyl]-8-[3-(trifluoromethyl)-1-piperidinyl]-[1,2,4]triazolo[1,5-a]pyridin-2-amine.1.5HCl.1.7H2O] as the compound, how does the IC50 (Aβtotal; Homo sapiens) read?
A: 3980 nM

Q: What about the IC50 (Aβ42; [1]) of the same compound?
A: 16 nM

Q: For COc1nc(Nc2nc3c(-c4ccc(F)cc4C)nccn3n2)ccc1-n1cnc(C)c1 [Compound 186, 8-(4-fluoro-2-methylphenyl)-N-[6-methoxy-5-(4-methyl-1H-imidazol-1-yl)-2-pyridinyl]-[1,2,4]triazolo[1,5-a]pyrazin-2-amine.HCl], which IC50 (Aβtotal) is on record?
A: > 10000 nM

Q: What about the IC50 (Aβ42; [2]) of the same compound?
A: 1100 nM

Q: With COc1nc(Nc2nc3c(-c4ccc(F)cc4C)nccn3n2)ccc1-c1ccnc(C)c1 [Compound 187, 8-(4-fluoro-2-methylphenyl)-N-(2-methoxy-2′-methyl[3,4′-bipyridin]-6-yl)-[1,2,4]triazolo[1,5-a]pyrazin-2-amine.HCl] as the compound, how does the IC50 (Aβtotal) read?
A: > 10000 nM

Q: And the IC50 (Aβ42; [2])?
A: 1620 nM
